Calls of active or inactive are those of the source. No cut-off for these calls is given here.
Key:
[1] = system: P388; assay: Cytotoxicity against mouse P388 cells by MTT assay; type: functional, cell-based
[2] = system: HT-29; assay: Cytotoxicity against human HT-29 cells by MTT assay; type: functional, cell-based
[3] = system: A549; assay: Cytotoxicity against human A549 cells by MTT assay; type: functional, cell-based
[4] = system: Human betaherpesvirus 5; assay: Antiviral activity against Human cytomegalovirus infected in Human HEL cells assessed as virus-induced cytopathic effect at 1 ug/ml treated 1 hr prior to infection measured after 7 days; type: functional, organism-based
[5] = system: Human betaherpesvirus 5; assay: Antiviral activity against Human cytomegalovirus infected in Human HEL cells assessed as virus-induced cytopathic effect treated 1 hr prior to infection measured after 7 days; type: functional, organism-based; conditions: Human betaherpesvirus 5, HEL
[6] = system: Shigella sonnei; assay: Antibacterial activity against Shigella sonnei ATCC 11060 at 100 ug/ml after 24 hrs; type: functional, organism-based
[7] = system: Serratia marcescens; assay: Antibacterial activity against Serratia marcescens ATCC 25419 at 100 ug/ml after 24 hrs; type: functional, organism-based
[8] = system: Salmonella enteritidis; assay: Antibacterial activity against Salmonella enteritidis ATCC 13076 at 100 ug/ml after 24 hrs; type: functional, organism-based; conditions: Salmonella enterica subsp. enterica serovar Enteritidis
[9] = system: Klebsiella aerogenes; assay: Antibacterial activity against Enterobacter aerogenes ATCC 13048 at 100 ug/ml after 24 hrs; type: functional, organism-based
[10] = system: Yersinia enterocolitica; assay: Antibacterial activity against Yersinia enterocolitica ATCC 23715 at 100 ug/ml after 24 hrs; type: functional, organism-based

| SMILES | EC50 [1] | EC50 [2] | EC50 [3] | Activity [4] | EC50 [5] | Activity [6] | Activity [7] | Activity [8] | Activity [9] | Activity [10] |
| --- | --- | --- | --- | --- | --- | --- | --- | --- | --- | --- |
| CO[C@H](C(=O)[C@@H](O)[C@@H](C)O)[C@@H]1Cc2cc3cc(O[C@H]4C[C@@H](O[C@@H]5C[C@@H](O)[C@H](O)[C@@H](C)O5)[C@H](O)[C@@H](C)O4)c(C)c(O)c3c(O)c2C(=O)[C@H]1O[C@H]1C[C@@H](O[C@@H]2C[C@@H](O)[C@@H](O[C@@H]3C[C@](C)(O)[C@H](O)[C@@H](C)O3)[C@@H](C)O2)[C@H](O)[C@@H](C)O1 [PLICAMYCIN] | 50 nM | 70 nM | 60 nM | – | – | – | – | – | – | – |
| C=C(C)[C@@H]1CC(=O)C[C@H]2C(=O)[C@@H]3[C@@H]4C(=C[C@@H]12)C(=O)O[C@@H]4C[C@]3(C)O | 11800 nM | > 20000 nM | > 20000 nM | inactive | > 50 µg/mL | inactive | inactive | inactive | inactive | inactive |

Source: ChEMBL document CHEMBL3124913, “Sinugyrosanolide A, an unprecedented C-4 norcembranoid, from the Formosan soft coral Sinularia gyrosa” (Bioorg Med Chem Lett, 2014)
